Measurements taken from US5153219A, “Thiocarbamate sulfoxide composition for deterring ethanol ingestion” (Faiman; Morris D., priority 1991, dated 1992).
Where two headings read alike, the source gives them in different places.

What was measured:
[1] = tested on: liver mitochondrial low Km ALDH; conditions: Hart et al., cited from earlier work; for dose at which 50% ALDH inhibition (ID50) occurred: intraperitoneal (IP) administration
[2] = Plasma acetaldehyde determination after ethanol challenge; type: in vivo, rat; conditions: male rats
Experimental: Rats maintained as described in Ex. 4, fasted for 18 hours, were given 10.3 mg/kg of the DETC-Me SO intraperitoneally, dissolved in polyethylene glycol 200 and then challenged eight hours later with a dose of ethanol (1 g/kg; 20% v/v) also administered intraperitoneally. The rats were anesthetized with phenobarbital 30 minutes after alcohol administration and blood was taken by aortic puncture, being drawn into a heparinized syringe. Plasma acetaldehyde was determined by the method of C.O.P. Eriksson et al., Anal. Biochem., 80, 116 (1977). Plasma concentrations were determined based on a standard curve obtained with known concentrations of acetaldehyde. Control rats were treated with 1 ml/kg of polyethylene glycol 200.

[3] = target: T1, rat liver mitochondrial low Km ALDH (Rattus norvegicus, UniProt P11884); test: In vitro inhibition of rat liver mitochondrial low Km ALDH (isolated mitochondria incubation); type: biochemical
T1 construct: Mitochondria were isolated from the liver of untreated rats; from tissue; host or cells: liver mitochondria of male Sprague-Dawley derived rats
T1 sequence (P11884 20-519): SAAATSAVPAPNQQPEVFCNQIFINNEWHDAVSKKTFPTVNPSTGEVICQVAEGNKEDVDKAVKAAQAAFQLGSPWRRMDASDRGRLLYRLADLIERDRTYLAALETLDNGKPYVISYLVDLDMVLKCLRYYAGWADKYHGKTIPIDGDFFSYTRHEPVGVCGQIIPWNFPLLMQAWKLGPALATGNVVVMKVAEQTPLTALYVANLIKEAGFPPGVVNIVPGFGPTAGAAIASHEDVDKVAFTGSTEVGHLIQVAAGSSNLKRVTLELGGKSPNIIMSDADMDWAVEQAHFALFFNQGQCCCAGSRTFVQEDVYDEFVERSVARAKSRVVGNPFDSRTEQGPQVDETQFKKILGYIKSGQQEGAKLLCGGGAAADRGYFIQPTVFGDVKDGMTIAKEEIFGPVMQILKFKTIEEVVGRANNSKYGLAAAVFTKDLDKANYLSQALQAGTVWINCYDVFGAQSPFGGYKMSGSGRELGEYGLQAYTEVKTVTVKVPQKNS
Experimental: 1. Drug Concentration. Concentrations of DETC-Me sulfoxide ("DETC-Me SO") studied were 0.2 μM, 2.0 μM, 20 μM and 200 μM. Concentrations of DDTC-Me SO studied were 0.5 μM, 2.5 μM, 10 μM, 25 μM, 50 μM and 100 μM.
2. Animal Liver Preparation. Male Sprague-Dawley derived rats weighing 200-400 g were anesthetized with carbon dioxide and then decapitated. The livers from untreated rats were homogenized in 0.25M sucrose and differential centrifugation carried out to isolate the mitochondrial fraction. The mitochodria were solubilized with sodium deoxycholate, and mitochondrial low Km ALDH activity determined by the method of S.O.C. Tottmar et al., Biochem. J., 135, 577 (1973).
3. In Vitro Incubation. Mitochondria were isolated from the liver of untreated rats as described in section (2) and resuspended in 0.1M phosphate buffer (pH=7.4). Incubations contained 2 mg of mitochondrial protein, to which was added DETC-Me SO or DDTC-Me SO in the concentrations described above. The DETC-Me SO or DDTC-Me SO was dissolved in ethanol and the incubations carried out for one hour. Control incubations contained ethanol alone.
4. Aldehyde Dehydrogenase Analysis. At the end of the incubation, the mitochondria were isolated by centrifugation, resuspended in 0.25M sucrose buffer and solubilized with deoxycholate. Low Km ALDH activity was determined by the method of S.O.C. Tottmar et al., cited above.

[4] = target: T1, rat liver mitochondrial low Km ALDH; test: Liver aldehyde dehydrogenase determination in vivo after dosing rats; conditions: for in vivo ALDH inhibition relative to comparators (in words): versus DETC-Me, disulfiram or other disulfiram metabolites; for ED50: rat, 8 h, read-out: dose required to inhibit 50% of the low Km ALDH
Experimental: 1. Drug Doses. Doses of DETC-Me SO studied were 1.3 mg/kg, 2.6 mg/kg, 5.2 mg/kg, 10.3 mg/kg and 20.6 mg/kg.
2. Animals. Male Sprague Dawley derived rats weighing 200-400 g were used. The rats were bred from a resident colony maintained in the Animals Care Unit at the University of Kansas. Rats were maintained on a 12-hour light-dark cycle with access to food and water ad lib until the night before an experiment, at which time food was removed. Animals were fasted for 12 hours prior to drug administration.
3. Timing. In these in vivo studies, rats were fasted 12 hours before beginning the experiment. All experiments were carried out in the morning. Rats were treated with the doses of DETC-Me SO or DETC-Me described above, which were dissolved in polyethylene glycol 200. Eight hours later, the rats were anesthetized with carbon dioxide and then decapitated. The liver was quickly removed and the low Km aldehyde dehydrogenase determined. Each data point on FIG. 4 represents an average of four rats. Control rats were treated with […] only, and each control data point also represents an average of four rats.
4. Aldehyde Dehydrogenase Determination. The liver from drug-treated and control rats was homogenized in 0.25M sucrose and differential centrifugation was carried out to isolate the mitochondrial fraction. The mitochondria were solubilized with sodium deoxycholate, and mitochondrial low Km and total (high and low) aldehyde dehydrogenase activity determined by the method of S.O.C. Tottmar et al., cited above.

[5] = tested on: liver mitochondrial low Km ALDH; conditions: Hart et al.; cited from earlier work

CCN(CC)C(=S)SC [DDTC-Me, diethyldithiocarbamate-methyl ester]
dose at which 50% ALDH inhibition (ID50) occurred [1]: 15.5 mg/kg

CCN(CC)C(=O)[S+](C)[O-] (stereo not drawn) [DETC-Me SO, S-Methyl-N,N-Diethylthiolcarbamate Sulfoxide]
plasma acetaldehyde ([2]; 10.3 mg/kg IP in polyethylene glycol 200, then 1 g/kg ethanol (20% v/v) IP, FIG. 5): approximately 900 μM
effect on plasma acetaldehyde after an ethanol challenge (in words) ([2]; 10.3 mg/kg IP, 1 g/kg ethanol IP): markedly increase plasma acetaldehyde
in vitro activity as inhibitor of low Km ALDH (in words) [3]: extremely potent inhibitor
in vitro activity as inhibitor of low Km ALDH (in words) ([3]; listed as DETC-Me sulfoxide): active in vitro
in vivo ALDH inhibition relative to comparators (in words) [4]: substantially more potent
in vivo ALDH inhibition relative to comparators (in words) ([4]; listed as DETC-Me sulfoxide): about twice as effective
ED50 ([4]; male rats, intraperitoneal (IP), liver taken eight hours after dosing, FIG. 4): 3.6 mg/kg

CCN(CC)C(=O)SC [DETC-Me, S-Methyl-N,N-Diethylthiolcarbamate]
potency as inhibitor of liver mitochondrial low Km ALDH relative to DDTC-Me, DDTC or disulfiram (in words) [1]: more potent inhibitor
dose at which 50% ALDH inhibition (ID50) occurred [1]: 6.5 mg/kg
inhibition at 200 µM ([3]; 1 h, read-out: inhibition of rat liver mitochondrial low Km ALDH): 8%
in vitro activity as inhibitor of low Km ALDH (in words) [3]: not
ED50 ([4]; ip): 6.5 mg/kg
in vitro inhibition of liver mitochondrial low Km ALDH (in words) [5]: not an effective in vitro inhibitor

CCN(CC)C(=S)SSC(=S)N(CC)CC [disulfiram, tetraethylthiuram disulfide]
dose at which 50% ALDH inhibition (ID50) occurred [1]: 56.2 mg/kg
